As a reminder, the MIC is the least concentration at which growth counts as inhibited. High values mean a need for much substance, low ones inhibition by little substance.

For 4 compounds, MIC results are on record in ChEMBL document CHEMBL1629422, “Synthesis and antimicrobial evaluation of some fused heterocyclic [1,2,4]triazolo[3,4-b][1,3,4]thiadiazole derivatives” (2010).

Common to all, as to format: functional
The test system of experiment [1] is Staphylococcus aureus. Description: Antimicrobial activity against Staphylococcus aureus ATCC 25923 after18 to 20 hrs by broth dilution method.
Experiment [2] deals with Staphylococcus epidermidis. Description: Antimicrobial activity against Staphylococcus epidermidis ATCC 14990 after18 to 20 hrs by broth dilution method. On the technique in general: In broth dilution the organism is exposed to a series of concentrations in liquid medium.
The test system of experiment [3] is Enterococcus faecalis. Description: Antimicrobial activity against Enterococcus faecalis ATCC 29212 after18 to 20 hrs by broth dilution method.
Experiment [4] concerns Bacillus cereus. Nature of the experiment: Antimicrobial activity against Bacillus cereus ATCC 13061 after18 to 20 hrs by broth dilution method.
In experiment [5] the test system is Escherichia coli. Description: Antimicrobial activity against Escherichia coli ATCC 25922 after18 to 20 hrs by broth dilution method.
Experiment [6] has as its system Enterobacter cloacae. Nature of the experiment: Antimicrobial activity against Enterobacter cloacae ATCC 49141 after18 to 20 hrs by broth dilution method.
Experiment [7] deals with Citrobacter freundii. Nature of the experiment: Antimicrobial activity against Citrobacter freundii ATCC 8090 after18 to 20 hrs by broth dilution method.
For experiment [8], the system named is Acinetobacter baumannii. Description: Antimicrobial activity against Acinetobacter baumannii ATCC 19606 after18 to 20 hrs by broth dilution method.
The test system of experiment [9] is Pseudomonas aeruginosa. Nature of the experiment: Antimicrobial activity against Pseudomonas aeruginosa ATCC 27853 after18 to 20 hrs by broth dilution method.
Experiment [10] concerns Candida albicans. Nature of the experiment: Antimicrobial activity against Candida albicans ATCC 90028 after 48 hrs by broth dilution method. The conditions noted are these: ATCC 90028, 48 h.

In brackets after ≈: the same amount, converted by molar mass.

Consider `O=S(=O)(c1ccc(Br)cc1)c1ccc(-c2nnc3sc(-c4cc(O)c(O)c(O)c4)nn23)cc1`, for which the MIC in [1] was determined as 256 µg/mL (≈ 469 µM); in experiment [2], 128 µg/mL (≈ 235 µM); in [3], 64 µg/mL (≈ 117 µM); in [4], 256 µg/mL (≈ 469 µM); in [5], 128 µg/mL (≈ 235 µM); in experiment [6], 256 µg/mL (≈ 469 µM). Besides, the MIC in experiment [7] is 128 µg/mL (≈ 235 µM); in experiment [8], 128 µg/mL (≈ 235 µM); in experiment [9], 128 µg/mL (≈ 235 µM); in [10], 512 µg/mL (≈ 939 µM).

With `O=S(=O)(c1ccc(Br)cc1)c1ccc(-c2nnc3sc(-c4ccc(Cl)c(Br)c4)nn23)cc1`, the MIC is 64 µg/mL (≈ 105 µM) in experiment [1]; 32 µg/mL (≈ 52.4 µM) in experiment [2]; 32 µg/mL (≈ 52.4 µM) in experiment [3]; 128 µg/mL (≈ 210 µM) in experiment [4]; 64 µg/mL (≈ 105 µM) in experiment [5]; 256 µg/mL (≈ 419 µM) in experiment [6]. Moreover, the MIC stood at 1020 µg/mL (≈ 1680 µM) in experiment [7], 512 µg/mL (≈ 838 µM) in experiment [8], 32 µg/mL (≈ 52.4 µM) in experiment [9] and 256 µg/mL (≈ 419 µM) in experiment [10].

As for `O=S(=O)(c1ccccc1)c1ccc(-c2nnc3sc(O)nn23)cc1`, the MIC in experiment [1] came out at 256 µg/mL (≈ 714 µM); in [2] it was 512 µg/mL (≈ 1430 µM); in experiment [3], 128 µg/mL (≈ 357 µM); in experiment [4] it was 1020 µg/mL (≈ 2860 µM); in [5], 256 µg/mL (≈ 714 µM); in experiment [6], 256 µg/mL (≈ 714 µM). Moreover, the MIC in [7] amounted to 512 µg/mL (≈ 1430 µM); in experiment [8], 128 µg/mL (≈ 357 µM); in experiment [9] it was 512 µg/mL (≈ 1430 µM); in experiment [10] it was 256 µg/mL (≈ 714 µM).

As for `O=S(=O)(c1ccc(Br)cc1)c1ccc(-c2nnc3sc(O)nn23)cc1`, the MIC in experiment [1] was 256 µg/mL (≈ 585 µM); in experiment [2] it was 128 µg/mL (≈ 293 µM); in experiment [3] it was 64 µg/mL (≈ 146 µM); in experiment [4], 1020 µg/mL (≈ 2340 µM); in experiment [5], 256 µg/mL (≈ 585 µM); in experiment [6] it was 256 µg/mL (≈ 585 µM). Moreover, the MIC in experiment [7], in [8], in experiment [9] and in experiment [10] was 256 µg/mL (≈ 585 µM) each time.
